In patent US12503451B2, “2-arylthiazole derivative or salt thereof, preparation method therefor, and pharmaceutical composition comprising same” (HEXAPHARMATEC CO., LTD., priority 2020, dated 2025):
Counter-ions that a name gives are not always drawn. Like-named read-outs stand apart in the source and are kept apart here.

Assays:
[1] = tested on: N2a cells; assay: Autophagy flux by electron microscope imaging; assay type: cell-based, mouse
Experimental: N2a cells (ATCC, CCL-131, mouse neuroblastoma cell line) (3×10^4 cells) and a medium (DMEM (Dulbecco's modified Eagle's medium, Gibco, 11995-065) supplemented with 5% heat-inactivated fetal bovine serum, FBS; Gibco, 16000-044) and 50 μg/ml penicillin-streptomycin (Gibco, 15140-122) were added to each well of a 6-well plate and incubated overnight at 37° C. in a CO2 incubator. The compound of Example 29 (5 μM) and rapamycin (10 μM) were respectively treated and then incubated at 37° C. in a CO2 incubator for 24 hours. Three wells per each group were subject to electron microscope block formation and then pre-fixation, post-fixation, dehydration, substitution, and embedding were carried out according to a flat-embedding method. After ultra-thin sections having a thickness of 70 nm were prepared, heavy metal staining (uranyl acetate, lead citrate) was carried out on the each section, which was photographed through a mosaic imaging technique for imaging the entire cells. In addition, the results obtained by measuring the numbers of the total autophagies (autophagic vesicles), autophagosomes, and autolysosomes per cell according to the treatment groups are shown in Table 3 below. In Table 3 below, the control means the untreated control.

[2] = tested on: primary mouse cortical neuron cells; assay: Inhibitory activity against neuronal apoptosis by beta amyloid (CCK-8), neuron cells; assay type: cell-based; settings: Cortical neurone, read-out: Cell viability (%) (Neuron cells)
Experimental: (§1) The inhibitory activities of the compounds of the present invention against neuronal apoptosis by beta amyloid, known as the major cytotoxic substance in neurodegenerative diseases, were analyzed in N2a cells (ATCC, CCL-131, mouse neuroblastoma cell line) and neuron cells (primary mouse cortical neuron cells) isolated in the same manners as in Test Example 2. The media used in Test Example 3 and Test Example 2 were used as a medium for the N2a cells and as a medium for the neuron cells, respectively. Specifically, N2a cells (3×10^4 cells) and neuron cells (8×10^4 cells), along with the respective media, were added to each well of a 96-well plate and then incubated overnight at 37° C. in a CO2 incubator. The cells were treated with the compound of Example 10 and the compound of Example 29 at the concentrations of 5 μM and 500 nM, respectively, treated with 20 μM of beta amyloid after 30 minutes therefrom, and then incubated at 37° C. in a CO2 incubator for 72 hours. The cells were treated with 10 μL of CCK-8 reagent (Enzo Life Science, ALX-850-039-KI02) and then incubated at 37° C. in a CO2 incubator for 2 hours. Three wells were tested for each group and each absorbance was measured at 450 nm. The absorbance value of the untreated control group was set to 100% cell viability. The cell viability of each group was calculated from the respective absorbance values.

[3] = tested on: N2a cells; assay: Inhibitory activity against neuronal apoptosis by beta amyloid (CCK-8), N2a cells; assay type: cell-based, mouse; settings: for viability at 5 µM: Mus musculus, N2a, read-out: Cell viability (%) (N2a cells); for Inhibition of cytotoxicity caused by beta amyloid treatment (in words): Table 9: N2a cells 5 μM and neuron cells 500 nM
Experimental: as §1

[4] = tested on: dimethylnitrosamine (DMN)-induced liver injury male SD rats; assay: Liver function-improving activities by oral administration in the liver injury model (2); assay type: in vivo, rat
Experimental: Specifically, 7-week-old male SD rats (Orient Bio, Korea) were accommodated to the laboratory environment at room temperature for 7 days. General symptoms were observed and then only healthy animals were used for the experiment. The rats were divided into 5 groups (n=10 for each group), i.e., the normal control group, the group to which only DMN is administered, and the group to which both the compound of the present invention (the compound of Example 23, 26, or 29) and DMN are administered. DMN was dissolved in purified water and then administered intraperitoneally at the dose of 10 mg/kg for 3 consecutive days per week (3 times per week, for 4 weeks). Blood samples were collected after the completion of the fourth-week liver injury inducement and then the serum ALT (Alanine Transaminase) values and the serum AST (Aspartate Transaminase) values were measured so as to confirm the liver injury thereof. […] Blood samples were collected on Day 0 (1 day after the completion of the fourth-week liver injury inducement) and Day 7, 14, 21 and 28 after the administration of the test materials. The collected blood was injected into a vacutainer tube containing a clot activator and then allowed to stand at room temperature for about 20 minutes so as to coagulate each blood sample. After centrifugation for 10 minutes, the resulting serums were subjected to blood-biochemical tests. In addition, at 24 hours after the last administration, an autopsy for hepatectomy and fixation was performed to prepare the tissue specimens thereof. After preparing the slides with the tissue specimens, hematoxylin and eosin (H&E) staining was performed thereon for microscopic observation of damages to liver tissue and inflammatory cell infiltrations in liver tissues. In addition, Masson's trichrome staining was also performed thereon for microscopic observation of collagen fiber depositions in liver tissues. The results obtained from the measurements were subject to group comparison, through parametric multiple comparisons or non-parametric multiple comparisons, with SPSS. When P<0.05, it was determined to be statistically significant. […] Therefore, it can be confirmed that the compounds of the present invention have excellent treating activity against liver fibrosis. […] From the results of FIG. 4, the degrees of damage to liver tissue and inflammatory cell infiltration in liver tissues were measured. And also, from the results of FIG. 4, the degree of collagen fiber deposition in liver tissues was measured.

[5] = tested on: primary mouse cortical neuron cells; assay: Autophagic vesicle formation (CYTO-ID Autophagy Detection Kit); assay type: cell-based; settings: for Cyto-ID fluorescence value (relative intensity): 5 μM, 24 hours, untreated control = 1; for Autophagic vesicle formation compared to rapamycin (in words): at ½ concentration of rapamycin (5 μM vs 10 μM)
Experimental: Autophagy lysosomal pathway (ALP) activation by the compounds of the present invention was verified, through measuring the degree of autophagic vesicle formation in neuron cells with the CYTO-ID™ Autophagy Detection Kit (ENZ-51031-K200, Enzo Life Sciences, Inc.). Neuron cells (i.e., primary mouse cortical neuron cells) were isolated from mice using an enzymatic digest method. Specifically, primary mouse cortical neuron cells were isolated by incubating the cortice tissues derived from 16 day embryonic C57BL6 mice, at 37° C. for 30 minutes, with 20 U/ml papain (Worthington Biochemical Corporation, LK003176) and 0.005% DNase I (Worthington Biochemical Corporation, LK003170).
The primary mouse cortical neuron cells (8×10^4 cells) and a medium (a neural cell culture media containing 2 mM L-glutamine (Gibco, 25030-081), N2 supplement (Gibco, 17502-048), B27 supplement (Gibco, 17504-044), and 50 μg/ml penicillin-streptomycin (Gibco, 15140-122)) were added to each well of a 96-well plate and then incubated overnight at 37° C. in a CO2 incubator. The compound of Example 10 (5 μM), the compound of Example 29 (5 μM), and rapamycin (10 μM) were respectively treated to the cells, which were incubated at 37° C. in a CO2 incubator for 24 hours. After each well was washed with 1×Assay Buffer (Enzo Life Science, ENZ-51031-K200), 0.2 μl of Cyto-ID autophagy dye and 0.1 μl of Hoechst 33342 were treated to the cells, which were incubated at 37° C. in a CO2 incubator for 30 minutes. After each well was washed with 1×Assay Buffer (Enzo Life Science, ENZ-51031-K200), the fluorescence values of Cyto-ID (EX: 480 nm, EM: 530 nm) and Hoechst 33342 (EX: 340 nm, EM: 480 nm) were respectively measured with a fluorometer. Three wells were tested for each group. After normalization was carried out through dividing the Cyto-ID fluorescence value of each well by Hoechst 33342 fluorescence value, each relative intensity was calculated by setting that of the untreated control to 1.

[6] = tested on: N2a cells; assay: Inhibitory activities against mitochondrial damage by rotenone (XF Cell Mito Stress Test); assay type: cell-based, mouse; settings: 5 μM + 10 μM rotenone
Experimental: The inhibitory activities of the compounds of the present invention against mitochondrial damage by rotenone, known as the major cytotoxic substance in neurodegenerative diseases, were analyzed in N2a cells (ATCC, CCL-131, mouse neuroblastoma cell line). Specifically, N2a cells (3×10^4 cells) and a medium (DMEM (Dulbecco's modified Eagle's medium, Gibco, 11995-065) supplemented with 5% heat-inactivated fetal bovine serum (FBS; Gibco, 16000-044) and 50 μg/ml penicillin-streptomycin (Gibco, 15140-122) were added to each well of a XF24-well culture plate and then incubated overnight at 37° C. in a CO2 incubator. The cells were treated with the compound of Example 10 (5 μM), treated with 10 μM of rotenone after 30 minutes therefrom, and then incubated at 37° C. in a CO2 incubator for 24 hours. After the treatment with a XF Cell Mito Stress Test Kit (Seahorse Bioscience, 103015-100) according to the manufacturer's instructions, the level of mitochondrial respiration was measured, using an XF24 Extracellular Flux Analyzer (Seahorse Bioscience). Four wells were tested for each group; and the basal respiration, the ATP production, the maximal respiration, and the spare respiratory capacity were measured. The levels of each mitochondrial respiration were normalized by the protein quantification value. The basal respiration of the untreated control group was set to 100% and the remaining values are shown. In Table 10, the control group represents a group treated with only 10 μM of rotenone.

[7] = 0 week (Day 0, after 4 weeks DMN, before administration)
[8] = 1 week, 25 mg/kg oral once a day after 4 weeks DMN
[9] = 2 weeks, 25 mg/kg oral once a day after 4 weeks DMN
[10] = 3 weeks, 25 mg/kg oral once a day after 4 weeks DMN
[11] = 4 weeks, 25 mg/kg oral once a day after 4 weeks DMN
[12] = 24 hours, basal respiration of untreated control = 100%

CCN(CC)CCOc1ccc(-c2nc(C)c(C(=O)NCC3(N(C)C)CCOCC3)s2)cc1C#N.Cl.Cl [Example 29, N-((4-(dimethylamino)tetrahydro-2H-pyran-4-yl)methyl)-2-(4-(2-diethylamino)ethoxy-3-cyanophenyl)-4-methylthiazole-5-carboxamide hydrochloride]
Numbers of the autophagy per cell: Autolysosome ([1]; 5 μM, 24 hours): 14.9
Numbers of the autophagy per cell: Autophagic vesicles ([1]; 5 μM, 24 hours): 22.3
Numbers of the autophagy per cell: Autophagosome ([1]; 5 μM, 24 hours): 6.9
Autophagic vesicle and autolysosome formation compared to rapamycin (in words) ([1]; at ½ concentration of rapamycin (5 μM vs 10 μM)): significantly increase autophagic vesicle formation, especially autolysosome formation
viability at 0.5 µM ([2]; 72 h): 53.3%
viability at 5 µM ([3]; 72 h): 68.5%
Inhibition of cytotoxicity caused by beta amyloid treatment (in words) [3]: significantly inhibit the cytotoxicity caused by beta amyloid treatment
ALT values (average value) [4, 7]: 219.29 U/L
AST values (average value) [4, 7]: 376.67 U/L
ALT values (average value) [4, 8]: 99.31 U/L
AST values (average value) [4, 8]: 164.60 U/L
ALT values (average value) [4, 9]: 66.57 U/L
AST values (average value) [4, 9]: 143.87 U/L
ALT values (average value) [4, 10]: 53.03 U/L
AST values (average value) [4, 10]: 127.65 U/L
ALT values (average value) [4, 11]: 52.97 U/L
AST values (average value) [4, 11]: 123.33 U/L
Cyto-ID fluorescence value (relative intensity) [5]: 2.171
Autophagic vesicle formation compared to rapamycin (in words) [5]: significantly increase autophagic vesicle formation

Cc1nc(-c2ccc(OCC(C)C)c(C#N)c2)sc1C(=O)NCC1(N(C)C)CCOCC1 [Example 10, N-((4-(dimethylamino)tetrahydro-2H-pyran-4-yl)methyl)-2-(3-cyano-4-isobutoxyphenyl)-4-methylthiazole-5-carboxamide hydrochloride]
Recovery of mitochondrial damage by rotenone treatment (in words) [6]: recovers the mitochondrial damage by rotenone treatment in a statistically significant level
Mitochondrial respiration (%): ATP production [6, 12]: 31.65%
Mitochondrial respiration (%): Basal [6, 12]: 51.69%
Mitochondrial respiration (%): Maximal [6, 12]: 62.28%
Mitochondrial respiration (%): Spare [6, 12]: 16.33%
viability at 0.5 µM ([2]; 500 nM, 20 μM beta amyloid, 72 hours, untreated control = 100%): 52.2%
viability at 5 µM ([3]; 5 μM, 20 μM beta amyloid, 72 hours, untreated control = 100%): 68.9%
Inhibition of cytotoxicity caused by beta amyloid treatment (in words) [3]: significantly inhibit the cytotoxicity caused by beta amyloid treatment
Cyto-ID fluorescence value (relative intensity) [5]: 1.813
Autophagic vesicle formation compared to rapamycin (in words) [5]: significantly increase autophagic vesicle formation
